# Laboratory results reported in patent publication US20220163532A1, “NUCLEAR-DERIVED EXOSOMES AND METHODS OF USE THEREOF” (Board of Regents, The University of Texas System, priority 2019, published 2022).
# What was measured:
# [1] = test system: OVCAR-5 and OVCAR-8 cells; experiment: DNA-positive exosomes (nExo) from drug-treated ovarian cancer cells by imaging flow cytometry; type: cell-based, human; settings: topotecan 10 nM or olaparib 20 μM, parental cells treated 48 hours, vs DMSO
# Procedure: Isolation of exosomes. The isolation method for exosomes that was used in this study followed the standard methods of the International Society of Extracellular Vesicles (Witwer et al., 2013). Cell lines described above were grown in the corresponding medium described above until 60 to 70% confluence was achieved. Cells were then washed twice with phosphate-buffered saline (PBS) and grown in corresponding medium containing 1% exosome-free FBS (EXO-FBS-250A-1, System Biosciences) plus 0.1% gentamicin for 48 hours. For exosome isolation, the harvested medium underwent serial centrifugation. First, the medium was spun down at 500g for 10 min to pellet any floating cells. Next, the supernatant was collected and spun down at 2000g for 30 min to pellet any residual cell debris. The resulting supernatant was then filtered through a 0.22-μm filter (SCGPUO5RE and SLGP033RS, Millipore-Sigma) to remove any remaining large vesicles. […] Exosome concentration and quantity were determined using NTA with a NanoSight NS300 instrument (Malvern Panalytical).
# Exosome staining for imaging flow cytometry and analysis. For quantitative analysis and imaging flow cytometry of exosomes, the method described by Erdbrugger et al. (2014) using an Amnis ImageStreamX MarkII analyzer was adapted. […]
# [2] = test system: OVCAR-5 and OVCAR-8 cells; experiment: MN quantification in ovarian cancer cells treated with genotoxic drugs (IF, Lamin A/C); type: cell-based, human; settings: topotecan 10 nM or olaparib 20 μM, vs DMSO
# Procedure: IF experiments and MN quantification. Cells were plated at a density of 5×10^4 cells on sterile, 0.17-mm-thick coverslips (12-548-A, Thermo Fisher Scientific) placed at the bottom of six-well plates. The next day, cells were treated for 24 hours with either vehicle control dimethyl sulfoxide (DMSO; 1:1000 dilution; D2650, Sigma-Aldrich), 20 μM olaparib (O-9201, LC Laboratories), or 10 nM topotecan (T2705-50MG, Sigma-Aldrich). After 24 hours, the cells were washed with PBS and refed with the appropriate cell culture medium to grow for another 48 hours, for a total time of 72 hours after initial plating on the coverslips.
# The drug-treated cells were first washed three times with PBS, fixed with 4% paraformaldehyde (PFA; 50-980-487, Thermo Fisher Scientific) diluted in PBS, and incubated at RT for 15 min with light rocking. […] Last, cells on coverslips were then washed four times with PBS and mounted on slides using ProLong Diamond Antifade Mountant (P36961, Thermo Fisher Scientific) and imaged with a Leica fluorescence microscope (Leica DM4000 M LED; Leica Microsystems) or an Andor Revolution XDi WD Spinning Disk Confocal microscope. For MN quantification, the number of MN in each 40× field was counted using 10 fields per sample. […]
smiles,measurement,setting,value
CC[C@@]1(O)C(=O)OCc2c1cc1n(c2=O)Cc2cc3c(CN(C)C)c(O)ccc3nc2-1 [topotecan],population of exosomes containing gDNA (proportion of nExo secreted),[1],increased
same,number of MN,[2],increased significantly
